From ChEMBL document CHEMBL1201862, “PubChem BioAssay data set” (2004)
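Dose response: 5 concentrations. Exposure: 48 h. Format: 96-well plates. Endpoint: linear interpolation; highest concentration if not reached. At the GI50, growth is halved.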 Calls of active or inactive are those of the source. Cut-off read from the data, not from the text of the source: active = GI50 up to about 1.1 µM and inactive = higher.

Legend:
Experiment in all cases: DTP human tumour cell line panel, 48 h
HCC 2998 = tested on: HCC 2998
MOLT-4 = tested on: MOLT-4
RPMI-8226 = tested on: RPMI-8226
HOP-62 = tested on: HOP-62
SK-MEL-28 = tested on: SK-MEL-28
COLO 205 = tested on: COLO 205
SK-OV-3 = tested on: SK-OV-3
SF-268 = tested on: SF-268
A549 = tested on: A549
OVCAR-4 = tested on: OVCAR-4
NCI-H522 = tested on: NCI-H522
KM12 = tested on: KM12
OVCAR-5 = tested on: OVCAR-5
TK-10 = tested on: TK-10
UO-31 = tested on: UO-31
K562 = tested on: K562
SF-539 = tested on: SF-539
RXF 393 = tested on: RXF 393
NCI-H226 = tested on: NCI-H226
LOX IMVI = tested on: LOX IMVI

COc1ccc(/C=C/C(=O)C(C)(C)C)cc1OC
GI50 (HCC 2998): > 100 µM (inactive) | GI50 (MOLT-4): 59.6 µM (inactive) | GI50 (RPMI-8226): 47.4 µM (inactive) | GI50 (HOP-62): > 100 µM (inactive) | GI50 (SK-MEL-28): 74.6 µM (inactive) | GI50 (COLO 205): > 100 µM (inactive) | GI50 (SK-OV-3): 76.2 µM (inactive) | GI50 (SF-268): 78.2 µM (inactive) | GI50 (A549): > 100 µM (inactive) | GI50 (OVCAR-4): 79.6 µM (inactive) | GI50 (NCI-H522): 34.8 µM (inactive) | GI50 (KM12): 43.9 µM (inactive) | GI50 (OVCAR-5): > 100 µM (inactive) | GI50 (TK-10): > 100 µM (inactive) | GI50 (UO-31): > 100 µM (inactive) | GI50 (K562): 36.7 µM (inactive)

Cc1cn(C2CC(n3cc(Cn4ccc(=O)[nH]c4=O)nn3)C(CO)O2)c(=O)[nH]c1=O (stereo unspecified)
GI50 (HCC 2998): > 100 µM (inactive) | GI50 (MOLT-4): > 100 µM (inactive) | GI50 (RPMI-8226): > 100 µM (inactive) | GI50 (SF-539): > 100 µM (inactive) | GI50 (HOP-62): > 100 µM (inactive) | GI50 (RXF 393): > 100 µM (inactive) | GI50 (SK-MEL-28): > 100 µM (inactive) | GI50 (COLO 205): > 100 µM (inactive) | GI50 (SK-OV-3): 49 µM (inactive) | GI50 (SF-268): > 100 µM (inactive) | GI50 (A549): > 100 µM (inactive) | GI50 (NCI-H226): > 100 µM (inactive) | GI50 (OVCAR-4): > 100 µM (inactive) | GI50 (KM12): > 100 µM (inactive) | GI50 (OVCAR-5): > 100 µM (inactive) | GI50 (TK-10): > 100 µM (inactive) | GI50 (UO-31): > 100 µM (inactive)

Cc1ccc(/N=N/C(C2=NC(=O)CS2)c2nc3ccccc3[nH]2)cc1 (stereo unspecified)
GI50 (MOLT-4): 20.7 µM (inactive) | GI50 (RPMI-8226): > 100 µM (inactive) | GI50 (SF-539): 54.6 µM (inactive) | GI50 (HOP-62): 27.2 µM (inactive) | GI50 (SK-MEL-28): > 100 µM (inactive) | GI50 (COLO 205): > 100 µM (inactive) | GI50 (SK-OV-3): > 100 µM (inactive) | GI50 (SF-268): 38.5 µM (inactive) | GI50 (A549): > 100 µM (inactive) | GI50 (NCI-H226): 6.1 µM (inactive) | GI50 (OVCAR-4): > 100 µM (inactive) | GI50 (NCI-H522): > 100 µM (inactive) | GI50 (KM12): > 100 µM (inactive) | GI50 (OVCAR-5): > 100 µM (inactive) | GI50 (TK-10): > 100 µM (inactive) | GI50 (UO-31): > 100 µM (inactive) | GI50 (K562): > 100 µM (inactive)

CC(C)(Br)C(=O)N1CCN(C(c2ccccc2)c2ccccc2)CC1
GI50 (HCC 2998): > 100 µM (inactive) | GI50 (MOLT-4): 30.1 µM (inactive) | GI50 (SF-539): > 100 µM (inactive) | GI50 (LOX IMVI): > 100 µM (inactive) | GI50 (HOP-62): 43.5 µM (inactive) | GI50 (RXF 393): 31.3 µM (inactive) | GI50 (SK-MEL-28): > 100 µM (inactive) | GI50 (COLO 205): > 100 µM (inactive) | GI50 (SK-OV-3): > 100 µM (inactive) | GI50 (SF-268): 64 µM (inactive) | GI50 (A549): > 100 µM (inactive) | GI50 (NCI-H226): 95.1 µM (inactive) | GI50 (OVCAR-4): > 100 µM (inactive) | GI50 (NCI-H522): 85.7 µM (inactive) | GI50 (KM12): 16.2 µM (inactive) | GI50 (OVCAR-5): > 100 µM (inactive) | GI50 (TK-10): > 100 µM (inactive) | GI50 (UO-31): 68.7 µM (inactive) | GI50 (K562): > 100 µM (inactive)

C=C(CO)C(=O)OC1CC(=C)C2CC(O)C(C)C2C2OC(=O)C(=C)C12 (stereo unspecified)
GI50 (HCC 2998): 21.7 µM (inactive) | GI50 (MOLT-4): 25.2 µM (inactive) | GI50 (RPMI-8226): 24.5 µM (inactive) | GI50 (SF-539): 18 µM (inactive) | GI50 (LOX IMVI): 29.9 µM (inactive) | GI50 (HOP-62): 19.4 µM (inactive) | GI50 (RXF 393): 20 µM (inactive) | GI50 (SK-MEL-28): 24.3 µM (inactive) | GI50 (COLO 205): 34.2 µM (inactive) | GI50 (SK-OV-3): 30.4 µM (inactive) | GI50 (SF-268): 20.7 µM (inactive) | GI50 (A549): 28.8 µM (inactive) | GI50 (OVCAR-4): 61.1 µM (inactive) | GI50 (NCI-H522): 26.3 µM (inactive) | GI50 (KM12): 18 µM (inactive) | GI50 (OVCAR-5): 30.9 µM (inactive) | GI50 (TK-10): 16.3 µM (inactive) | GI50 (UO-31): 16.2 µM (inactive) | GI50 (K562): 31.3 µM (inactive)

CN1CCC(C(=O)NNc2ccccc2)CC1
GI50 (HCC 2998): 5.22 µM (inactive) | GI50 (MOLT-4): 1.23 µM (inactive) | GI50 (RPMI-8226): 24.8 µM (inactive) | GI50 (SF-539): 7.87 µM (inactive) | GI50 (LOX IMVI): 0.923 µM (active) | GI50 (HOP-62): 14.3 µM (inactive) | GI50 (RXF 393): > 100 µM (inactive) | GI50 (SK-MEL-28): 17.1 µM (inactive) | GI50 (COLO 205): 3.08 µM (inactive) | GI50 (SK-OV-3): > 100 µM (inactive) | GI50 (SF-268): 7.05 µM (inactive) | GI50 (A549): 12.2 µM (inactive) | GI50 (NCI-H226): > 100 µM (inactive) | GI50 (OVCAR-4): 13.3 µM (inactive) | GI50 (NCI-H522): 3.27 µM (inactive) | GI50 (KM12): 3.15 µM (inactive) | GI50 (OVCAR-5): 8.3 µM (inactive) | GI50 (TK-10): 18.3 µM (inactive) | GI50 (UO-31): 3.16 µM (inactive) | GI50 (K562): 0.931 µM (active)

C#CCCCCC#Cc1ccccc1C(=O)OC
GI50 (HCC 2998): > 100 µM (inactive) | GI50 (MOLT-4): 12.7 µM (inactive) | GI50 (RPMI-8226): 13.1 µM (inactive) | GI50 (SF-539): > 100 µM (inactive) | GI50 (LOX IMVI): 14.8 µM (inactive) | GI50 (HOP-62): > 100 µM (inactive) | GI50 (RXF 393): 21.4 µM (inactive) | GI50 (SK-MEL-28): 25.8 µM (inactive) | GI50 (COLO 205): > 100 µM (inactive) | GI50 (SK-OV-3): > 100 µM (inactive) | GI50 (SF-268): 21 µM (inactive) | GI50 (A549): > 100 µM (inactive) | GI50 (NCI-H226): 43.5 µM (inactive) | GI50 (OVCAR-4): 58.9 µM (inactive) | GI50 (KM12): 58.2 µM (inactive) | GI50 (OVCAR-5): 52.8 µM (inactive) | GI50 (TK-10): > 100 µM (inactive) | GI50 (UO-31): 40.5 µM (inactive) | GI50 (K562): 9.93 µM (inactive)

Cc1c2ccccc2c(CO)c2cc(F)c3ccccc3c12
GI50 (HCC 2998): 50.6 µM (inactive) | GI50 (MOLT-4): 14.8 µM (inactive) | GI50 (SF-539): 30.6 µM (inactive) | GI50 (LOX IMVI): 17.1 µM (inactive) | GI50 (HOP-62): 31.5 µM (inactive) | GI50 (RXF 393): 24.7 µM (inactive) | GI50 (SK-MEL-28): 44 µM (inactive) | GI50 (COLO 205): 15.6 µM (inactive) | GI50 (SK-OV-3): 29 µM (inactive) | GI50 (SF-268): 24.5 µM (inactive) | GI50 (A549): 26.6 µM (inactive) | GI50 (NCI-H226): 42 µM (inactive) | GI50 (OVCAR-4): 23.4 µM (inactive) | GI50 (NCI-H522): 12.9 µM (inactive) | GI50 (KM12): 18.8 µM (inactive) | GI50 (OVCAR-5): 28 µM (inactive) | GI50 (TK-10): 37.4 µM (inactive) | GI50 (UO-31): 40 µM (inactive) | GI50 (K562): 23.5 µM (inactive)
